Results as given in patent publication US20090004497A1, “Wood Preservative Formulations Comprising Rh-287” (priority 2006, published 2009).
Where “and” joins values, the source holds several entries; their conditions need not be identical. Identical values can stand only once.

Tested on: decay organisms
Assay: soil contact veneer exposure test (Scots pine sapwood veneers part buried in damp compost, pulled by hand until failure)
Settings: for Half lives for chemicals tested as solutions in acetone, With RH-287 added / Half lives for chemicals tested as solutions in acetone, No addition (average time for failure to occur) / positive synergy: actual average time to failure compared with the estimated one / Half lives, With RH-287 added, expected value in parentheses: Example 1; for Half lives for chemicals tested as solutions in acetone, With RH-287 added: 1.00% fungicide plus 1.00% RH-287 in acetone; for Half lives for chemicals tested as solutions in acetone, No addition (average time for failure to occur): 2.00% fungicide alone in acetone, dip treated veneers, 6 replicates, compost about 30° C.; for positive synergy: actual average time to failure compared with the estimated one: combination of RH-287 with co-biocide, 1.00% each in acetone; for Half lives, With RH-287 added, expected value in parentheses: expected additive value for 1.00% fungicide plus 1.00% RH-287, midway between the two 2.00% values
Description: It is preferable that the thickness of the veneers be greater than 0.1 mm, as veneers of lesser thickness can often be pulled apart by hand without undergoing exposure to decay organisms. Veneers which are thicker than 0.4 may take an excessive amount of time to fail the exposure test. In one embodiment, the thickness of the veneers is about 0.2 mm and the wood is the sapwood of the Scots pine (Pinus sylvestris). Other woods and thicknesses can be used. […] For example, 0.2 mm thick Scots pine sapwood veneers which are exposed as outlined below generally fail in 5 weeks or less. An example of convenient width and length dimensions are 15×50 mm. However, width and length are not critical, although very large or small length or width dimensions may be difficult to handle.
Accordingly, the test of the present invention comprises testing the integrity of a veneer after exposure to a decay-inducing environment. In one embodiment, this environment is damp compost in which decay organisms are present and water is present at just above the water holding capacity of the compost. If desired, other media can be used, and the test can be conducted at water contents which are below, at, or above the water-holding capacity of the media.
In general, the integrity of the veneer is inversely related to the length of exposure to the decay promoting environment. The integrity of the veneer can be tested by applying a force to the veneer and noting whether or not the veneer breaks. Thus, if wood preservative agents are applied to the veneers, these veneers would be expected to withstand longer exposure to the environment without breaking compared to control veneers without breaking.
The force applied to the veneers is preferably a force which pulls the two ends in opposite directions. The force can be applied by the use of an instrument or manually. If there is significant decay the veneer will break, generally near the junction between the portion submerged in the decay accelerating medium and the portion exposed to air. If the force is applied manually, it is preferable that the same individual conduct the test at the various exposure time points.
Veneers of Scots pine Pinus sylvestris (0.2 mm thick, 50×15 mm) sapwood are cut from test blocks as described in EN 113, a known standard test method in the European timber industry. The veneers were cut such that both late wood and early wood were present in each veneer. RH-287 was tested in combination with the following biocides: chlorothalonil, fenpropimorph, propiconazole, copper ( as copper naphthenate ), tridemorph, fenarimol, cyproconazole, Imazalil and dichlorophen.
Test solutions were prepared and sets of veneers were dip treated such that there were 6 replicate veneers for each treatment under investigation. Additionally six veneers were dip treated in deionised water to act as water controls. Being thin, the timber veneers dried quickly. Plastic containers (approximately 350×220 mm by at least 60 mm high) were part filled with John Innes Number 2 potting compost at a little above its water holding capacity. The veneers for a particular test were placed in six rows within a container such that approximately half the veneer was below the compost and half above. The veneers were placed in the compost such than those given a particular treatment were distributed throughout the container and were not grouped together. The containers, compost and veneers were weighed then incubated at about 30° C. and near 100% relative humidity in an incubator. Each week during the test the assembly was reweighed and deionised water added to bring it back to its original mass. After 3 weeks each veneer was examined in turn. It was held between the fingers at each end and pulled to see if it could be broken. If it could be pulled apart a failure was recorded. If the veneer was sound, this was recorded and the veneer was returned to its original position. […]

[1] = Example 3, solutions in acetone
[2] = Example 4, solutions in acetone

| Compound | Half lives for chemicals tested as solutions in acetone, With RH-287 added [weeks] | Half lives for chemicals tested as solutions in acetone, No addition (average time for failure to occur) | Half lives, With RH-287 added, expected value in parentheses | also measured |
| --- | --- | --- | --- | --- |
| CC(C1CC1)C(O)(Cn1cncn1)c1ccc(Cl)cc1 (stereo not drawn) [Cyproconazole, (2RS,3RS;2RS,3SR)-2-(4-chlorophenyl)-3-cyclopropyl-1-=(1H-1,2,4-trazol-1-yl)butan-2-ol] | 22.00 | 5.17 weeks | (15.17 weeks) | positive synergy: actual average time to failure compared with the estimated one: most marked |
| CC(Cc1ccc(C(C)(C)C)cc1)CN1C[C@@H](C)O[C@@H](C)C1 (mixture of isomers) [Fenpropimorph, (±)-cis-4-[3-(4-tert-butylphenyl)-2-nethylpropyl]-2,6-dimethyl=morpholine] | 21.17 | 4.50 weeks | (14.84 weeks) | positive synergy: actual average time to failure compared with the estimated one: most marked |
| Copper naphthenate [Copper (as Copper Naphthenate)] | 21.50 | 16.67 weeks |  |  |
| CCCCCCCCn1sc(Cl)c(Cl)c1=O [RH-287, 4,5 dichloro-2-n-octyl-4-isothiazolin-3-one] |  | 25.17 weeks |  | Half life for fungicide at 2.00% active ingredient (ai) (Example 2, solutions in acetone): 22.50 weeks; Half life for fungicide at 0.8% active ingredient [1]: 10.00 weeks; Half life for fungicide at 1.60% active ingredient (ai) [1]: 16.83 weeks; Half life for fungicide at 0.8% active ingredient [2]: 12.17 weeks; Half life for fungicide at 1.60% active ingredient (ai) [2]: 16.67 weeks; relationship between concentration of RH-287 and veneer half life (Example 5, up to about 2% RH-287 in acetone (FIG. 1)): corresponding increase in the half life |
| N#Cc1c(Cl)c(Cl)c(Cl)c(C#N)c1Cl [Chlorothalonil, tetrachloroisophthalonitrile] | 22.50 | 12.5 weeks and 12.50 weeks |  | Half lives for chemicals tested as solutions in acetone, No addition (average time for failure to occur) (listed as chlorothalonil): 12.5 weeks; Half lives, With RH-287 added, expected value in parentheses (listed as chlorothalonil): about 18.84 weeks |
| Oc1ccc(Cl)cc1Cc1cc(Cl)ccc1O [Dichlorophen, 4.4′-dichloro-2,2′-methylenediphenol] | 24.17 | 16.00 weeks | (20.59 weeks) | Half life for 0.8% fungicide plus 0.8% RH-287, expected value in parentheses (Example 3, expected additive value): {13.83 weeks}; Half life for 0.8% fungicide plus 0.8% RH-287 [1]: 15.33 weeks; Half life for fungicide at 0.8% active ingredient [1]: 8.67 weeks; Half life for fungicide at 1.60% active ingredient (ai) [1]: 10.83 weeks |
| CCCCCCCCCCCCCN1CC(C)OC(C)C1 (stereo not shown) [Tridemorph, 4-alkyl-2,6-dimethylmorpholine] | 17.50 | 4.33 weeks | (14.75 weeks) |  |
| CCCC1COC(Cn2cncn2)(c2ccc(Cl)cc2Cl)O1 (racemic) [Propiconazole, (±)-1-[2-(2,4-dichlorophenyl)-4-propyl-1,3-dioxolan-2-ylmethyl-=1H-1,2,4-triazol] | 20.50 | 4.50 weeks | (14.84 weeks) |  |
| OC(c1ccc(Cl)cc1)(c1cncnc1)c1ccccc1Cl (racemic) [Fenarimol, (±)-2,4′-dichloro-α-(pyrimidin-5-yl) benzhydryl alcohol] | 17.17 | 5.50 weeks | (15.34 weeks) |  |
